This is an account of results in patent US20250009742A1 (priority 2021, published 2025).

Where only a bound is given, the exact number is not on record here.

The nature of data set [1]: Cell viability assay (EZ-Cytox), cytotoxicity. The note with it: human, HepAD38 cells; for viability at 65 h, 100 µM: read-out: Cytotoxicity % Livability (@100 μM). Format: cell-based. As to the method: HepAD38 cells were cultured for 2 days in Dulbecco's Modified Eagle's medium (Welgene, LM001-05) supplemented with 10% FBS without tetracycline. […] After 65 hours of treatment, viability was measured using EZ-Cytox cell viability assay kit (Daeil Lab Service) according to the manufacturer's instructions. The absorbance was measured at 450 nm using a spectrophotometer (Spark, Tecan).

The subject of another data set is intracellular HBV DNA. In words: Real-time PCR for intracellular HBV DNA in HepAD38 cells. Format: cell-based. The following applies: Hepatitis B virus, HePAD38, 65 h, 65 hours treatment. A general note: Real-time PCR tracks product formation cycle by cycle.

By CC50 is commonly meant the concentration at which the toxic effect on the cells reaches its halfway point. Read a low CC50 as greater toxicity to the cells. In general, IC50 refers to the concentration that gives 50% inhibition. Consider `COc1ncc(N(Cc2cc(C(F)(F)F)[nH]n2)C(=O)Nc2cccc(C(F)F)c2)cn1` [Example 176, 3-(3-(difluoromethyl)phenyl)-1-(2-methoxypyrimidin-5-yl)-1-((5-(trifluoromethyl)-1H-pyrazol-3-yl)methyl)urea], for which, in data set [1], the CC50 at 65 h was more than 100000 nM and the viability at 65 h, 100 µM was 53.5%. Further, the IC50 in the data set with intracellular HBV DNA is 36 nM.

On to `COc1ncc(N(Cc2cc(C(F)F)[nH]n2)C(=O)Nc2cccc(C(F)F)c2)cn1` [Example 178, 1-((5-(difluoromethyl)-1H-pyrazol-3-yl)methyl)-3-(3-(difluoromethyl)phenyl)-1-(2-methoxypyrimidin-5-yl)urea], for which, in data set [1], the CC50 at 65 h is more than 100000 nM and the viability at 65 h, 100 µM was 68.5%. Besides, the IC50 in the data set with intracellular HBV DNA amounted to 22 nM.

As for `COc1ncc(N(Cc2cc(C(F)F)[nH]n2)C(=O)Nc2cccc(C(F)F)n2)cn1` [Example 179, 1-((5-(difluoromethyl)-1H-pyrazol-3-yl)methyl)-3-(6-(difluoromethyl)pyridin-2-yl)-1-(2-methoxypyrimidin-5-yl)urea], in data set [1], the CC50 at 65 h is more than 100000 nM and the viability at 65 h, 100 µM came out at 79.3%. The molecule further came in with an IC50 with intracellular HBV DNA of 700 nM.

Turning to `COc1ncc(N(Cc2cc(C#N)[nH]n2)C(=O)Nc2cccc(C(F)F)c2)cn1` [Example 180, 1-((5-cyano-1H-pyrazol-3-yl)methyl)-3-(3-(difluoromethyl)phenyl)-1-(2-methoxypyrimidin-5-yl)urea], in data set [1], the CC50 at 65 h is more than 100000 nM and the viability at 65 h, 100 µM was 88.1%. This molecule also showed an IC50 with intracellular HBV DNA of 64 nM.

Turning to `COC12CC(N(Cc3cc(C(F)(F)F)[nH]n3)C(=O)Nc3cccc(C(F)F)c3)(C1)C2` [Example 181, 3-(3-(difluoromethyl)phenyl)-1-(3-methoxybicyclo[1.1.1]pentan-1-yl)-1-((5-(trifluoromethyl)-1H-pyrazol-3-yl)methyl)urea], in data set [1], the CC50 at 65 h was more than 100000 nM and the viability at 65 h, 100 µM is 64.9%. Moreover, the midpoint of inhibition with intracellular HBV DNA, the IC50, lay at 130 nM.

With `CCOCCc1c(CN(C(=O)Nc2ccc(F)cc2)c2ccc(OC)nc2)n[nH]c1C(F)(F)F` [Example 182, 1-((4-(2-ethoxyethyl)-5-(trifluoromethyl)-1H-pyrazol-3-yl)methyl)-3-(4-fluorophenyl)-1-(6-methoxypyridin-3-yl)urea], in data set [1], the half-maximal cytotoxic concentration (CC50) at 65 h is more than 100000 nM and the viability at 65 h, 100 µM stood at 104%. The molecule further yielded an IC50 with intracellular HBV DNA of more than 1100 nM.

Turning to `COc1ncc(N(Cc2cc(C(F)(F)F)[nH]n2)C(=O)Nc2cnc(F)nc2)cn1` [Example 186, 3-(2-fluoropyrimidin-5-yl)-1-(2-methoxypyrimidin-5-yl)-1-((5-(trifluoromethyl)-1H-pyrazol-3-yl)methyl)urea], in data set [1], the CC50 at 65 h was more than 100000 nM and the viability at 65 h, 100 µM stood at 86.4%. The IC50 with intracellular HBV DNA was more than 1100 nM.

The molecule `COc1ncc(N(Cc2cc(C(F)(F)F)[nH]n2)C(=O)Nc2cc(F)ccn2)cn1` [Example 187, 3-(4-fluoropyridin-2-yl)-1-(2-methoxypyrimidin-5-yl)-1-((5-(trifluoromethyl)-1H-pyrazol-3-yl)methyl)urea] registered a CC50 at 65 h in data set [1] of more than 100000 nM. The molecule also yielded an IC50 with intracellular HBV DNA of more than 1100 nM.

In the case of `COc1ccc(N(Cc2cc(C(F)(F)F)[nH]n2)C(=O)Nc2ccc(F)c(C(F)F)c2)cn1` [Example 188, 3-(3-(difluoromethyl)-4-fluorophenyl)-1-(6-methoxypyridin-3-yl)-1-((5-(trifluoromethyl)-1H-pyrazol-3-yl)methyl)urea], in data set [1], the CC50 at 65 h was more than 100000 nM and the viability at 65 h, 100 µM came out at 97.9%. The same molecule had an IC50 in the data set on intracellular HBV DNA of 16 nM.

As for `COc1ncc(N(Cc2cc(C(F)(F)F)[nH]n2)C(=O)Nc2ccc(F)c(C(F)F)c2)cn1` [Example 189, 3-(3-(difluoromethyl)-4-fluorophenyl)-1-(2-methoxypyrimidin-5-yl)-1-((5-(trifluoromethyl)-1H-pyrazol-3-yl)methyl)urea], in data set [1], the CC50 at 65 h is more than 100000 nM and the viability at 65 h, 100 µM worked out at 58%. For the same molecule, in the data set on intracellular HBV DNA, 6.5 nM corresponded to half-maximal inhibition (IC50).

For `COc1ncc(N(Cc2cc(C(F)(F)F)[nH]n2)C(=O)Nc2cc(C(F)F)c(F)cn2)cn1` [Example 192, 3-(4-(difluoromethyl)-5-fluoropyridin-2-yl)-1-(2-methoxypyrimidin-5-yl)-1-((5-(trifluoromethyl)-1H-pyrazol-3-yl)methyl)urea], in data set [1], the CC50 at 65 h is more than 100000 nM and the viability at 65 h, 100 µM came to 104%. In addition, the IC50 in the data set with intracellular HBV DNA was 59 nM.

In data set [1], `COc1ncc(N(Cc2n[nH]c(C(F)(F)F)c2CCO)C(=O)Nc2ccc(F)c(C(F)F)c2)cn1` [Example 193, 3-(3-(difluoromethyl)-4-fluorophenyl)-1-((4-(2-hydroxyethyl)-5-(trifluoromethyl)-1H-pyrazol-3-yl)methyl)-1-(2-methoxypyrimidin-5-yl)urea] registered a CC50 at 65 h of more than 100000 nM. For the same molecule, the IC50 in the data set on intracellular HBV DNA turned out to be 180 nM.

The molecule `COc1ncc(N(Cc2n[nH]c(C(F)(F)F)c2Br)C(=O)Nc2ccc(F)c(C(F)F)c2)cn1` [Example 194, 1-((4-bromo-5-(trifluoromethyl)-1H-pyrazol-3-yl)methyl)-3-(3-(difluoromethyl)-4-fluorophenyl)-1-(2-methoxypyrimidin-5-yl)urea] registered a CC50 at 65 h in data set [1] of more than 100000 nM. In the data set on intracellular HBV DNA, this molecule gave a concentration for half-maximal inhibition (IC50) of 21 nM.

Turning to `COc1ccc(N(Cc2cc(C(F)F)[nH]n2)C(=O)Nc2ccc(F)c(C(F)F)c2)nn1` [Example 195, 1-((5-(difluoromethyl)-1H-pyrazol-3-yl)methyl)-3-(3-(difluoromethyl)-4-fluorophenyl)-1-(6-methoxypyridazin-3-yl)urea], in data set [1], the CC50 at 65 h is more than 100000 nM and the viability at 65 h, 100 µM came to 100%. Besides, the IC50 in the data set with intracellular HBV DNA is more than 1100 nM.

With `COc1ncc(N(Cc2cc(C(F)F)[nH]n2)C(=O)Nc2ccc(F)c(C(F)F)n2)cn1` [Example 196, 1-((5-(difluoromethyl)-1H-pyrazol-3-yl)methyl)-3-(6-(difluoromethyl)-5-fluoropyridin-2-yl)-1-(2-methoxypyrimidin-5-yl)urea], in data set [1], the CC50 at 65 h turned out to be 76400 nM and the viability at 65 h, 100 µM was 29.2%. In the data set with intracellular HBV DNA, the IC50 amounted to 160 nM.

On to `COc1ncc(N(Cc2n[nH]c(C(F)F)c2Br)C(=O)Nc2ccc(F)c(C(F)F)c2)cn1` [Example 197, 1-((4-bromo-5-(difluoromethyl)-1H-pyrazol-3-yl)methyl)-3-(3-(difluoromethyl)-4-fluorophenyl)-1-(2-methoxypyrimidin-5-yl)urea], for which, in data set [1], the CC50 at 65 h was determined as 79100 nM and the viability at 65 h, 100 µM turned out to be 11.5%. The IC50 with intracellular HBV DNA stood at 19 nM.

Regarding `COc1ncc(N(Cc2n[nH]c(C(F)F)c2C(C)(C)O)C(=O)Nc2ccc(F)c(C(F)F)c2)cn1` [Example 198, 1-((5-(difluoromethyl)-4-(2-hydroxypropan-2-yl)-1H-pyrazol-3-yl)methyl)-3-(3-(difluoromethyl)-4-fluorophenyl)-1-(2-methoxypyrimidin-5-yl)urea], in data set [1], the CC50 at 65 h is more than 100000 nM and the viability at 65 h, 100 µM is 102%. For the same molecule, the IC50 in the data set with intracellular HBV DNA is more than 1100 nM.

As for `COc1ncc(N(Cc2n[nH]c(C(F)(F)F)c2CC(C)O)C(=O)Nc2ccc(F)c(C(F)F)c2)cn1` (stereo not drawn) [Example 199, 3-(3-(difluoromethyl)-4-fluorophenyl)-1-((4-(2-hydroxypropyl)-5-(trifluoromethyl)-1H-pyrazol-3-yl)methyl)-1-(2-methoxypyrimidin-5-yl)urea], in data set [1], the CC50 at 65 h is more than 100000 nM and the viability at 65 h, 100 µM came out at 95.7%. The same molecule registered an IC50 with intracellular HBV DNA of 750 nM.

Consider `COc1cc(N(Cc2cc(C(F)F)[nH]n2)C(=O)Nc2ccc(F)c(C(F)F)c2)cnn1` [Example 201, 1-((5-(difluoromethyl)-1H-pyrazol-3-yl)methyl)-3-(3-(difluoromethyl)-4-fluorophenyl)-1-(6-methoxypyridazin-4-yl)urea], for which, in data set [1], the CC50 at 65 h is more than 100000 nM and the viability at 65 h, 100 µM turned out to be 107%. The molecule also had an IC50 with intracellular HBV DNA of 28 nM.

`COc1ncc(N(Cc2cc(C(F)(F)F)[nH]n2)C(=O)Nc2ccc(F)c(C(F)F)n2)cn1` [Example 202, 3-(6-(difluoromethyl)-5-fluoropyridin-2-yl)-1-(2-methoxypyrimidin-5-yl)-1-((5-(trifluoromethyl)-1H-pyrazol-3-yl)methyl)urea]: in data set [1], the CC50 at 65 h was more than 100000 nM and the viability at 65 h, 100 µM worked out at 82.3%. In addition, it took 46 nM to reach half-maximal inhibition in the data set with intracellular HBV DNA (IC50).

Take `COc1ncc(N(Cc2cc(C(F)(F)F)[nH]n2)C(=O)Nc2ccc(C(F)F)c(F)c2)cn1` [Example 206, 3-(4-(difluoromethyl)-3-fluorophenyl)-1-(2-methoxypyrimidin-5-yl)-1-((5-(trifluoromethyl)-1H-pyrazol-3-yl)methyl)urea]: in data set [1], the CC50 at 65 h was more than 100000 nM and the viability at 65 h, 100 µM stood at 89.6%. This molecule gave an IC50 with intracellular HBV DNA of 180 nM.

On to `COc1ncc(N(Cc2n[nH]c(C(F)(F)F)c2C(C)(C)O)C(=O)Nc2ccc(F)c(C(F)F)c2)cn1` [Example 207, 3-(3-(difluoromethyl)-4-fluorophenyl)-1-((4-(2-hydroxypropan-2-yl)-5-(trifluoromethyl)-1H-pyrazol-3-yl)methyl)-1-(2-methoxypyrimidin-5-yl)urea], for which, in data set [1], the CC50 at 65 h was more than 100000 nM and the viability at 65 h, 100 µM came to 87.7%. In the data set on intracellular HBV DNA, this molecule gave an IC50 of 740 nM.

In the case of `COc1ncc(N(Cc2cc(C#N)[nH]n2)C(=O)Nc2ccc(F)c(C(F)F)n2)cn1` [Example 212, 1-((5-cyano-1H-pyrazol-3-yl)methyl)-3-(6-(difluoromethyl)-5-fluoropyridin-2-yl)-1-(2-methoxypyrimidin-5-yl)urea], in data set [1], the CC50 at 65 h was more than 100000 nM and the viability at 65 h, 100 µM was found to be 99.4%. Moreover, half-maximal inhibition in the data set on intracellular HBV DNA (IC50) was put at 210 nM.

In the case of `COC12CC(N(Cc3cc(C(F)(F)F)[nH]n3)C(=O)Nc3ccc(F)c(C(F)F)c3)(C1)C2` [Example 213, 3-(3-(difluoromethyl)-4-fluorophenyl)-1-(3-methoxybicyclo[1.1.1]pentan-1-yl)-1-((5-(trifluoromethyl)-1H-pyrazol-3-yl)methyl)urea], in data set [1], the CC50 at 65 h was more than 100000 nM and the viability at 65 h, 100 µM was 63.1%. Further, in the data set on intracellular HBV DNA, the IC50 was determined as 16 nM.
